Laboratory results from patent US7960590B2, “Method for producing ethyleneamines from untreated AAN” (BASF SE, priority 2007, dated 2011).

Assay: Solubility of IDAN in THF and in AAN

## N#CCNCC#N [IDAN, iminodiacetonitrile]
In AAN at 40° C.
  dissolved concentration: ~52%
In AAN, room temperature, up to
  dissolved concentration: ~35%
In THF at room temperature
  solubility: ~10%
